From patent US8471005B2 (Cephalon, Inc., priority 2008, dated 2013)
pIC50: −log10 of the molar value. Like-named read-outs stand apart in the source and are kept apart here.

Assays:
[1] = target: T1, ALK (Homo sapiens, UniProt Q9UM73); assay: ALK Kinase Assay (ELISA/TRF, PLC-γ substrate); assay type: biochemical; settings: read-out: ALK Potency
T1 construct: host or cells: baculovirus expression system
Outline: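 Read-out is time-resolved fluorescence from a Eu-N1-labeled PT66 antibody that binds phosphorylated PLC-γ, the substrate coated at 10 μg/mL in TBS. ALK at 30 ng/ml starts the reaction, which runs 15 minutes at 37° C.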

[2] = target: T2, JAK2 (Homo sapiens, UniProt O60674); assay: Recombinant Human JAK2 Kinase Assay (TRF); assay type: biochemical; settings: read-out: JAK2 Potency
T2 construct: host or cells: baculovirus expression system
T2 sequence (O60674 whole entry): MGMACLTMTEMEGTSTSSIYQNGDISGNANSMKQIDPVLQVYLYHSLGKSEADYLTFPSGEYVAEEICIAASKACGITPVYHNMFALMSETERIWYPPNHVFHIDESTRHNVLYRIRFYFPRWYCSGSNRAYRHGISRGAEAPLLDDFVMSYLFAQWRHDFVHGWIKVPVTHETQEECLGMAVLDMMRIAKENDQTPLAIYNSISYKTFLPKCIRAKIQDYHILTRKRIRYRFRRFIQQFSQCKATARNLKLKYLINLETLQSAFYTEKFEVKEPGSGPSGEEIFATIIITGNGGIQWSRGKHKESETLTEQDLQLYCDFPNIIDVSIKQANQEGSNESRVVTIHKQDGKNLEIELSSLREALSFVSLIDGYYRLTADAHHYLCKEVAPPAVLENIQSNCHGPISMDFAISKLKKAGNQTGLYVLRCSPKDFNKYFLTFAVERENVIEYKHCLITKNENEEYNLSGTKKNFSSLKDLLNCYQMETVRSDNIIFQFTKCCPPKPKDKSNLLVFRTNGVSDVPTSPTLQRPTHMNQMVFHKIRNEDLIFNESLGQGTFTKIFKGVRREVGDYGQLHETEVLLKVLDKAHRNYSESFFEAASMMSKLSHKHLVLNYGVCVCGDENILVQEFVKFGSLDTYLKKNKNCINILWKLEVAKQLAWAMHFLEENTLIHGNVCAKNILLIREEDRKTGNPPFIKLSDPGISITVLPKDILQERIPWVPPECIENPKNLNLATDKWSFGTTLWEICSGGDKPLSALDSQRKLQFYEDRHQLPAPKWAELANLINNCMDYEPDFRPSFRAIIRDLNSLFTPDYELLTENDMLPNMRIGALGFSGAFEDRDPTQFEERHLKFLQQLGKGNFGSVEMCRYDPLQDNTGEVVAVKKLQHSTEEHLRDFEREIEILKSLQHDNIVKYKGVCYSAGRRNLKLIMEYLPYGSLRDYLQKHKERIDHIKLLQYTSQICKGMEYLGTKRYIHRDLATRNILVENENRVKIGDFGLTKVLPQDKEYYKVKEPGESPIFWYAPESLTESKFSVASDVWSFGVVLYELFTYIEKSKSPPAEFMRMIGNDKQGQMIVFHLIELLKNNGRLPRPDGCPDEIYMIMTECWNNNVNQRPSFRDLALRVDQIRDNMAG
Outline: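 TRF read-out: Eu-N1 PY100 anti-phosphotyrosine antibody detects product. Enzyme is baculovirus-expressed JAK2 at 15 ng/ml; substrate is a biotinyl 15-mer peptide bound to Neutravidin-coated wells. Buffer 20 mM HEPES pH 7.2, 0.2 μM ATP, 1 mM MnCl2, 0.1% BSA, 2.5% DMSO final; 20 min, RT.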

[3] = ALK kinase inhibition, 1 μM ATP
[4] = JAK2 kinase inhibition, 0.2 μM ATP

T1 sequence (Q9UM73 19-1620): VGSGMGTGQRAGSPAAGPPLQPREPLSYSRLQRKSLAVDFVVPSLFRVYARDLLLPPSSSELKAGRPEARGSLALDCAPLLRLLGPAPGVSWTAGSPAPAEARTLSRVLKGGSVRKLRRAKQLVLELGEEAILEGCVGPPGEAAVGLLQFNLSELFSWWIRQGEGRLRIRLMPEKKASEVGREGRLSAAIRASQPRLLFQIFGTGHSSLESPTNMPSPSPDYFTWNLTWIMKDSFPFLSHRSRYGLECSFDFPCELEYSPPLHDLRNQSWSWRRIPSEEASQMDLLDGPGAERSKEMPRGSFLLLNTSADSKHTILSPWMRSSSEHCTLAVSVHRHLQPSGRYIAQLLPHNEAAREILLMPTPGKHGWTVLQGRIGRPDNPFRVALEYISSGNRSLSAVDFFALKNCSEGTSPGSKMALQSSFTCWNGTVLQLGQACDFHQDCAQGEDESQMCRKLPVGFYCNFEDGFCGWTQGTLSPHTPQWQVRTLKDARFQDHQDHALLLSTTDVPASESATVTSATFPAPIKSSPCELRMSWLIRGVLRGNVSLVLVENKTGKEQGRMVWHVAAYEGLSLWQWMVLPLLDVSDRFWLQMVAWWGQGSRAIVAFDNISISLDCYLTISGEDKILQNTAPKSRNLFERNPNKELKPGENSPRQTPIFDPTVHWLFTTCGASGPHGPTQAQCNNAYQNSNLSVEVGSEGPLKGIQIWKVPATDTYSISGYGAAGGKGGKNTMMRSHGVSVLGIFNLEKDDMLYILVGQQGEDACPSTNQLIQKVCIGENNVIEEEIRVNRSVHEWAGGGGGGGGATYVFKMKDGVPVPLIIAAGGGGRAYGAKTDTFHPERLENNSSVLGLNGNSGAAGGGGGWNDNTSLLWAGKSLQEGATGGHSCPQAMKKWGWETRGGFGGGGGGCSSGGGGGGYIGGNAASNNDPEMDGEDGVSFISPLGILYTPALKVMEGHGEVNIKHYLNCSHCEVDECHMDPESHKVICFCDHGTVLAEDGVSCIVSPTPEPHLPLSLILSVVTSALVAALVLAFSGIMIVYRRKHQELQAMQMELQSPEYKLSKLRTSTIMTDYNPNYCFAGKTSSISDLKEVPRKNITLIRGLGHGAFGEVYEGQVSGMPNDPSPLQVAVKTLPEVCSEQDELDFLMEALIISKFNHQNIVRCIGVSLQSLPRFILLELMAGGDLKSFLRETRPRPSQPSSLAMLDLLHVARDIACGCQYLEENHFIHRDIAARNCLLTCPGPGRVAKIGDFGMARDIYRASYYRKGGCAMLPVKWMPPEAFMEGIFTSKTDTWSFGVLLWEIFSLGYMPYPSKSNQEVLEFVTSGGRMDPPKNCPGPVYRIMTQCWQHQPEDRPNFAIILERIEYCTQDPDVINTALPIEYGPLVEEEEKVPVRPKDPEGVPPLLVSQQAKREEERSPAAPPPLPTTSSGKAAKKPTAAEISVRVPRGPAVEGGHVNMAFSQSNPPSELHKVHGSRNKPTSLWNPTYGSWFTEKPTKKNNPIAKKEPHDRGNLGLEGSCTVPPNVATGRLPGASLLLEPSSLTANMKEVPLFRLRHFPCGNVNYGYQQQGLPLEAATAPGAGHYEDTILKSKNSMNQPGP

Row | Compound | pIC50 [1, 3] | pIC50 [2, 4] | pIC50 ([1]; ALK Kinase Inhibition) | pIC50 ([2]; JAK2 Kinase Inhibition)
1 | COc1cc(C2CCN(CC(N)=O)CC2)ccc1Nc1ncc2ccc(-c3ccccc3-n3cccn3)n2n1 [Example 854, 2-(4-{3-Methoxy-4-[7-(2-pyrazol-1-yl-phenyl)-pyrrolo[2,1-f][1,2,4]triazin-2-ylamino]-phenyl}-piperidin-1-yl)-acetamide] | > 7.00 | < 5.00 |  | 
2 | CCS(=O)(=O)Nc1cccc(-c2ccc3cnc(Nc4ccc(N5CCN(C)CC5)cc4)nn23)c1 [Example 415, Ethanesulfonic acid (3-{2-[4-(4-methyl-piperazin-1-yl)-phenylamino]-pyrrolo[2,1-f][1,2,4]triazin-7-yl}-phenyl)-amide] |  |  | 6.00 to 7.00 | > 7.00
3 | COc1cc(C2CCN(CC(N)=O)CC2)ccc1Nc1ncc2c(O)cc(-c3ccccc3N(C)S(C)(=O)=O)n2n1 [Example 1259, 2-[4-(4-{5-Hydroxy-7-[2-(methanesulfonyl-methyl-amino)-phenyl]-pyrrolo[2,1-f][1,2,4]triazin-2-ylamino}-3-methoxy-phenyl)-piperidin-1-yl]-acetamide] | > 7.00 | 5.00 to 6.00 |  | 
4 | N-[2-(2-{4-[4-(2-Hydroxy-ethylamino)-piperidin-1-yl]-2-methoxy-phenylamino}-pyrrolo[2,1-f][1,2,4]triazin-7-yl)-phenyl]-N-methyl-methanesulfonamide [Example 798] | > 7.00 | 6.00 to 7.00 |  | 
5 | COc1ccc(N(C)S(C)(=O)=O)c(-c2ccc3cnc(Nc4ccc(C5CCN(CC(N)=O)CC5)cc4OC)nn23)c1 [Example 1283, 2-[4-(4-{7-[2-(Methanesulfonyl-methyl-amino)-5-methoxy-phenyl]-pyrrolo[2,1-f][1,2,4]triazin-2-ylamino}-3-methoxy-phenyl)-piperidin-1-yl]-acetamide] | 6.00 to 7.00 | < 5.00 |  | 
6 | COc1cc(CN2CCN(C(=O)OC(C)(C)C)CC2)ccc1Nc1ncc2ccc(-c3ccccc3N(C)S(C)(=O)=O)n2n1 [Example 1222, 4-(4-{7-[2-(Methanesulfonyl-methyl-amino)-phenyl]-pyrrolo[2,1-f][1,2,4]triazin-2-ylamino}-3-methoxy-benzyl)-piperazine-1-carboxylic acid tert-butyl ester] | > 7.00 | 5.00 to 6.00 |  | 
7 | COc1ccccc1-c1ccc2cnc(Nc3ccc(CN4CCCC4)cc3)nn12 [Example 1430, [7-(2-Methoxy-phenyl)-pyrrolo[2,1-f][1,2,4]triazin-2-yl]-(4-pyrrolidin-1-ylmethyl-phenyl)-amine] |  |  | > 7.00 | > 7.00
8 | CS(=O)(=O)c1ccc(-c2ccc3cnc(Nc4ccc5nc(C(F)(F)F)[nH]c5c4)nn23)cc1 [Example 1302, [7-(4-Methanesulfonyl-phenyl)-pyrrolo[2,1-f][1,2,4]triazin-2-yl]-(2-trifluoromethyl-3H-benzimidazol-5-yl)-amine] | < 5.00 | > 7.00 |  | 
9 | CN1CCN(C2CCN(c3ccc(Nc4ncc5cc6ccccc6n5n4)cc3)CC2)CC1 [Example 264, {4-[4-(4-Methyl-piperazin-1-yl)-piperidin-1-yl]-phenyl}-[1,2,4]triazino[1,6-a]indol-2-yl-amine] |  |  | 5.00 to 6.00 | > 7.00
10 | COc1cc(N2CCC(N3CCCN(CCO)CC3)CC2)ccc1Nc1ncc2ccc(-c3ccccc3OC)n2n1 [Example 801, 2-[4-(1-{3-Methoxy-4-[7-(2-methoxy-phenyl)-pyrrolo[2,1-f][1,2,4]triazin-2-ylamino]-phenyl}-piperidin-4-yl)-[1,4]diazepan-1-yl]-ethanol] | > 7.00 | > 7.00 |  | 
11 | N#CCOc1ccccc1-c1ccc2cnc(Nc3ccc(N4CCOCC4)cc3)nn12 [Example 1144, {2-[2-(4-Morpholin-4-yl-phenylamino)-pyrrolo[2,1-f][1,2,4]triazin-7-yl]-phenoxy}-acetonitrile] | > 7.00 | > 7.00 |  | 
12 | COc1ccc(Cl)cc1-c1ccc2cnc(Nc3cccc(C(=O)N4CCOCC4)c3)nn12 [Example 328, {3-[7-(5-Chloro-2-methoxy-phenyl)-pyrrolo[2,1-f][1,2,4]triazin-2-ylamino]-phenyl}-morpholin-4-yl-methanone] |  |  | 6.00 to 7.00 | > 7.00
13 | CS(=O)(=O)Nc1ccccc1-c1ccc2cnc(Nc3cccc(OCCN4CCOCC4)c3)nn12 [Example 1002, N-(2-{2-[3-(2-Morpholin-4-yl-ethoxy)-phenylamino]-pyrrolo[2,1-f][1,2,4]triazin-7-yl}-phenyl)-methanesulfonamide] | 5.00 to 6.00 | > 7.00 |  | 
14 | (±)-1-Fluoro-3-(4-{3-methoxy-4-[7-(2-methoxy-phenyl)-pyrrolo[2,1-f][1,2,4]triazin-2-ylamino]-phenyl}-piperidin-1-yl)-propan-2-ol [Example 825] | > 7.00 | 6.00 to 7.00 |  | 
15 | CC(C)(C)NS(=O)(=O)c1cccc(-c2ccc3cnc(Nc4ccc5c(c4)N(S(C)(=O)=O)CCC5)nn23)c1 [Example 1060, N-tert-Butyl-3-[2-(1-methanesulfonyl-1,2,3,4-tetrahydro-quinolin-7-ylamino)-pyrrolo[2,1-f][1,2,4]triazin-7-yl]-benzenesulfonamide] | 5.00 to 6.00 | > 7.00 |  | 
16 | COc1cc2c(cc1Nc1ncc3ccc(-c4cccc(S(=O)(=O)NC(C)(C)C)c4)n3n1)CCN(C[C@@H](C)O)CC2 [Example 700] | > 7.00 | 6.00 to 7.00 |  | 
17 | CN1CCN(C)C(c2ccc(Nc3ncc4ccc(-c5cccc(S(=O)(=O)NC(C)(C)C)c5)n4n3)cc2)C1=O (stereo not shown) [Example 1074, N-tert-Butyl-3-{2-[4-(1,4-dimethyl-3-oxo-piperazin-2-yl)-phenylamino]-pyrrolo[2,1-f][1,2,4]triazin-7-yl}-benzene sulfonamide] | 5.00 to 6.00 | > 7.00 |  | 
18 | CN1CCN(c2cccc(Nc3ncc4ccc(-c5cccc6c5OC(F)(F)O6)n4n3)c2)CC1 [Example 1534, [7-(2,2-Difluoro-benzo[1,3]dioxol-4-yl)-pyrrolo[2,1-f][1,2,4]triazin-2-yl]-[3-(4-methyl-piperazin-1-yl)-phenyl]-amine] |  |  | 6.00 to 7.00 | > 7.00
19 | COc1ccc(-c2ccc3cnc(Nc4ccc5nc(CO)[nH]c5c4)nn23)cn1 [Example 1069, {6-[7-(6-Methoxy-pyridin-3-yl)-pyrrolo[2,1-f][1,2,4]triazin-2-ylamino]-1H-benzoimidazol-2-yl}-methanol] | 5.00 to 6.00 | > 7.00 |  | 
20 | CN1CCN(c2ccc(Nc3ncc4ccc(-c5ccccc5S(C)(=O)=O)n4n3)cc2)CC1 [Example 406, [7-(2-Methanesulfonyl-phenyl)-pyrrolo[2,1-f][1,2,4]triazin-2-yl]-[4-(4-methyl-piperazin-1-yl)-phenyl]-amine] |  |  | 5.00 to 6.00 | > 7.00
21 | [7-(4-Methanesulfonyl-phenyl)-pyrrolo[2,1-f][1,2,4]triazin-2-yl]-(4-piperidin-1-yl-phenyl)-amine [Example 85] |  |  | < 5.00 | > 7.00
22 | COc1ccc(Cl)cc1-c1ccc2cnc(Nc3cccc(N4CCN(C[C@@H](C)O)CC4)c3)nn12 [Example 214, (R)-1-(4-{3-[7-(5-Chloro-2-methoxy-phenyl)-pyrrolo[2,1-f][1,2,4]triazin-2-ylamino]-phenyl}-piperazin-1-yl)-propan-2-ol] |  |  | > 7.00 | > 7.00
23 | COc1ccccc1-c1ccc2cnc(Nc3ccc(OCCN4CCOCC4)cc3)nn12 [Example 1101, [7-(2-Methoxy-phenyl)-pyrrolo[2,1-f][1,2,4]triazin-2-yl]-[4-(2-morpholin-4-yl-ethoxy)-phenyl]-amine] | > 7.00 | > 7.00 |  | 
24 | COc1ccccc1-c1cc2cnc(Nc3ccc(N4CCN(C)CC4)cc3)nn2c1 [Example 1156, [6-(2-Methoxy-phenyl)-pyrrolo[2,1-f][1,2,4]triazin-2-yl]-[4-(4-methyl-piperazin-1-yl)-phenyl]-amine] | 5.00 to 6.00 | 6.00 to 7.00 |  | 
25 | CS(=O)(=O)Nc1ccccc1-c1ccc2cnc(Nc3cccc(N4CCOCC4)c3)nn12 [Example 431, N-{2-[2-(3-Morpholin-4-yl-phenylamino)-pyrrolo[2,1-f][1,2,4]triazin-7-yl]-phenyl}-methanesulfonamide] |  |  | 5.00 to 6.00 | > 7.00
26 | COc1cc(Nc2ncc3ccc(-c4ccc(S(C)(=O)=O)cc4)n3n2)cc(OC)c1OC [Example 162, [7-(4-Methanesulfonyl-phenyl)-pyrrolo[2,1-f][1,2,4]triazin-2-yl]-(3,4,5-trimethoxy-phenyl)-amine] |  |  | 6.00 to 7.00 | > 7.00
27 | COc1cc(C2CCCN(CC(N)=O)C2)ccc1Nc1ncc2ccc(-c3ccccc3N(C)S(C)(=O)=O)n2n1 (racemic) [Example 861, (±)-2-[3-(4-{7-[2-(Methanesulfonyl-methyl-amino)-phenyl]-pyrrolo[2,1-f][1,2,4]triazin-2-ylamino}-3-methoxy-phenyl)-piperidin-1-yl]-acetamide] | > 7.00 | 6.00 to 7.00 |  | 
28 | CN1CCN(C(=O)N2CCC(c3ccc(Nc4ncc5ccc(-c6ccccc6N(C)S(C)(=O)=O)n5n4)cc3)CC2)CC1 [Example 503, N-Methyl-N-[2-(2-{4-[1-(4-methyl-piperazine-1-carbonyl)-piperidin-4-yl]-phenylamino}-pyrrolo[2,1-f][1,2,4]triazin-7-yl)-phenyl]-methanesulfonamide] | > 7.00 | > 7.00 |  | 
29 | CC(C)(C)NS(=O)(=O)c1cccc(-c2ccc3cnc(Nc4ccc5c(c4)CN(CC(N)=O)C5)nn23)c1 [Example 927, 2-{5-[7-(3-tert-Butylsulfamoyl-phenyl)-pyrrolo[2,1-f][1,2,4]triazin-2-ylamino]-1,3-dihydro-isoindol-2-yl}-acetamide] | 6.00 to 7.00 | > 7.00 |  | 
